Results reported in ChEMBL document CHEMBL5291721, “A preclinical secondary pharmacology resource illuminates target-adverse drug reaction associations of marketed drugs” (Nat Commun, 2023).

Columns and labels:
[1] = target: Voltage-dependent N-type calcium channel subunit alpha-1B (Rattus norvegicus, UniProt Q02294); type: functional
[2] = target: T1, Gastric inhibitory polypeptide receptor (Homo sapiens, UniProt P48546)
T1 sequence (P48546 whole entry): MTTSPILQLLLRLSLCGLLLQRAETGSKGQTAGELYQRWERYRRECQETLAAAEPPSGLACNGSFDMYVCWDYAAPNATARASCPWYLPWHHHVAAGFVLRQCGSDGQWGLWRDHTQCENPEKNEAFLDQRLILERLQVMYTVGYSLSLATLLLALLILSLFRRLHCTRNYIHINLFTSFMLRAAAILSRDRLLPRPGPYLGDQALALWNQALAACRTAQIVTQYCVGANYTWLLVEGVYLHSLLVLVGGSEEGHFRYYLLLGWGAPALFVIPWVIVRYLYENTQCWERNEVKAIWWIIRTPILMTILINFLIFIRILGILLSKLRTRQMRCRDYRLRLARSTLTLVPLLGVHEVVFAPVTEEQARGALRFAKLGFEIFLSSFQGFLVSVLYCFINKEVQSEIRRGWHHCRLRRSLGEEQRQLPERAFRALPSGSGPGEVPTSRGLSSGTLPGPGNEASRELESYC

[3] = target: T2, Alpha-2A adrenergic receptor (Homo sapiens, UniProt P08913)
T2 sequence (P08913 whole entry): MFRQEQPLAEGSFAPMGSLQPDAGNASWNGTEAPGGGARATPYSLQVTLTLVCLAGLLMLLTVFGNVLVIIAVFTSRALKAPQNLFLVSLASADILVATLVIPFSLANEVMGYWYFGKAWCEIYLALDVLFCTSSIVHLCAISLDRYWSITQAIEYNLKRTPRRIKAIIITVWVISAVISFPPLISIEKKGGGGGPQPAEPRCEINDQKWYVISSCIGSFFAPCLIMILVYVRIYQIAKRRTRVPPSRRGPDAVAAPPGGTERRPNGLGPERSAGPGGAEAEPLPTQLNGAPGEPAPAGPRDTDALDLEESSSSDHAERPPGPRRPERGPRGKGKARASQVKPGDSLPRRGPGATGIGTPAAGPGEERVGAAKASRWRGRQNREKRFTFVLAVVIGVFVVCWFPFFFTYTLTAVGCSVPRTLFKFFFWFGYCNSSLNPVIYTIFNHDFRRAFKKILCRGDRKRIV

Mu-type opioid receptor = Mu-type opioid receptor (Homo sapiens, UniProt P35372)
Vasopressin V2 receptor = Vasopressin V2 receptor (Homo sapiens, UniProt P30518)
B1 bradykinin receptor = target: T3, B1 bradykinin receptor (Homo sapiens, UniProt P46663)
T3 sequence (P46663 whole entry): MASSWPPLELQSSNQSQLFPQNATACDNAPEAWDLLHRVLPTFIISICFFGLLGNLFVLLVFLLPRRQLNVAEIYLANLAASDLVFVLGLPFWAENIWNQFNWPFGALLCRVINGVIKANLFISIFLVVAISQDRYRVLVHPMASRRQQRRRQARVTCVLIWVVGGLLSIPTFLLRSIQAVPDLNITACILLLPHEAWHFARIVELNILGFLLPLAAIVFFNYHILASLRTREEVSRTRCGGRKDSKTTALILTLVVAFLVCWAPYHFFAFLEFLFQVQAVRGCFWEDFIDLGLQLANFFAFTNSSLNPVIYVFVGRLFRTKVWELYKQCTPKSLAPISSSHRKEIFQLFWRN

[4] = target: Sodium channel protein type 5 subunit alpha (Homo sapiens, UniProt Q14524); type: functional, cell-based
Histamine H3 receptor = Histamine H3 receptor (Homo sapiens, UniProt Q9Y5N1)
[5] = target: Prostaglandin G/H synthase 1 (Homo sapiens, UniProt P23219); type: functional
Progesterone receptor = target: T4, Progesterone receptor (Homo sapiens, UniProt P06401); type: functional
T4 sequence (P06401 whole entry): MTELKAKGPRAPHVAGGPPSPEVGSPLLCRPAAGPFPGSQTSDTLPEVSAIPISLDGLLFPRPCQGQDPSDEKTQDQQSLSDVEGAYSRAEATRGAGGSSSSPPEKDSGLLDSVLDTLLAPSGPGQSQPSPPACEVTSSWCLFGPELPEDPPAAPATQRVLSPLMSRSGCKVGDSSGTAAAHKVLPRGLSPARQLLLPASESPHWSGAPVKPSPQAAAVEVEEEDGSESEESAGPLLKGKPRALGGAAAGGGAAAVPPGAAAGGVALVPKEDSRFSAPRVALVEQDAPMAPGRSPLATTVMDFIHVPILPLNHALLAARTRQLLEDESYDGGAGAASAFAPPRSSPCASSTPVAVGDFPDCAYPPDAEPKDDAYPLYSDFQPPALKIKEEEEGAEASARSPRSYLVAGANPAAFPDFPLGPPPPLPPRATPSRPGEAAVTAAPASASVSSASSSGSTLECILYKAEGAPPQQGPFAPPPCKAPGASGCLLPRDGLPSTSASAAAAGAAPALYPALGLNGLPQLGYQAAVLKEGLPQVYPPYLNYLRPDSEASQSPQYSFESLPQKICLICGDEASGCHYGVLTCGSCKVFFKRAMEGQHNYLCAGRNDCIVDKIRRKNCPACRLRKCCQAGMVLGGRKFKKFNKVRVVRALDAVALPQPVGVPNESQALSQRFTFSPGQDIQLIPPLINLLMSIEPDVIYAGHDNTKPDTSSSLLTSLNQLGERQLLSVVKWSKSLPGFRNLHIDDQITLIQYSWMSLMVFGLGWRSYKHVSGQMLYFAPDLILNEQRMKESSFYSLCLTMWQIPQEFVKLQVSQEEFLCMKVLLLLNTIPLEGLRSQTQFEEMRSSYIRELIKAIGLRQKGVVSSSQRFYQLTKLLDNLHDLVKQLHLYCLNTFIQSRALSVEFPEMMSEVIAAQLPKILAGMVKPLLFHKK

[6] = target: Sodium-dependent noradrenaline transporter (Homo sapiens, UniProt P23975)
Further: assay procedure not described here.

Sequence of Sodium channel protein type 5 subunit alpha (Q14524 whole entry): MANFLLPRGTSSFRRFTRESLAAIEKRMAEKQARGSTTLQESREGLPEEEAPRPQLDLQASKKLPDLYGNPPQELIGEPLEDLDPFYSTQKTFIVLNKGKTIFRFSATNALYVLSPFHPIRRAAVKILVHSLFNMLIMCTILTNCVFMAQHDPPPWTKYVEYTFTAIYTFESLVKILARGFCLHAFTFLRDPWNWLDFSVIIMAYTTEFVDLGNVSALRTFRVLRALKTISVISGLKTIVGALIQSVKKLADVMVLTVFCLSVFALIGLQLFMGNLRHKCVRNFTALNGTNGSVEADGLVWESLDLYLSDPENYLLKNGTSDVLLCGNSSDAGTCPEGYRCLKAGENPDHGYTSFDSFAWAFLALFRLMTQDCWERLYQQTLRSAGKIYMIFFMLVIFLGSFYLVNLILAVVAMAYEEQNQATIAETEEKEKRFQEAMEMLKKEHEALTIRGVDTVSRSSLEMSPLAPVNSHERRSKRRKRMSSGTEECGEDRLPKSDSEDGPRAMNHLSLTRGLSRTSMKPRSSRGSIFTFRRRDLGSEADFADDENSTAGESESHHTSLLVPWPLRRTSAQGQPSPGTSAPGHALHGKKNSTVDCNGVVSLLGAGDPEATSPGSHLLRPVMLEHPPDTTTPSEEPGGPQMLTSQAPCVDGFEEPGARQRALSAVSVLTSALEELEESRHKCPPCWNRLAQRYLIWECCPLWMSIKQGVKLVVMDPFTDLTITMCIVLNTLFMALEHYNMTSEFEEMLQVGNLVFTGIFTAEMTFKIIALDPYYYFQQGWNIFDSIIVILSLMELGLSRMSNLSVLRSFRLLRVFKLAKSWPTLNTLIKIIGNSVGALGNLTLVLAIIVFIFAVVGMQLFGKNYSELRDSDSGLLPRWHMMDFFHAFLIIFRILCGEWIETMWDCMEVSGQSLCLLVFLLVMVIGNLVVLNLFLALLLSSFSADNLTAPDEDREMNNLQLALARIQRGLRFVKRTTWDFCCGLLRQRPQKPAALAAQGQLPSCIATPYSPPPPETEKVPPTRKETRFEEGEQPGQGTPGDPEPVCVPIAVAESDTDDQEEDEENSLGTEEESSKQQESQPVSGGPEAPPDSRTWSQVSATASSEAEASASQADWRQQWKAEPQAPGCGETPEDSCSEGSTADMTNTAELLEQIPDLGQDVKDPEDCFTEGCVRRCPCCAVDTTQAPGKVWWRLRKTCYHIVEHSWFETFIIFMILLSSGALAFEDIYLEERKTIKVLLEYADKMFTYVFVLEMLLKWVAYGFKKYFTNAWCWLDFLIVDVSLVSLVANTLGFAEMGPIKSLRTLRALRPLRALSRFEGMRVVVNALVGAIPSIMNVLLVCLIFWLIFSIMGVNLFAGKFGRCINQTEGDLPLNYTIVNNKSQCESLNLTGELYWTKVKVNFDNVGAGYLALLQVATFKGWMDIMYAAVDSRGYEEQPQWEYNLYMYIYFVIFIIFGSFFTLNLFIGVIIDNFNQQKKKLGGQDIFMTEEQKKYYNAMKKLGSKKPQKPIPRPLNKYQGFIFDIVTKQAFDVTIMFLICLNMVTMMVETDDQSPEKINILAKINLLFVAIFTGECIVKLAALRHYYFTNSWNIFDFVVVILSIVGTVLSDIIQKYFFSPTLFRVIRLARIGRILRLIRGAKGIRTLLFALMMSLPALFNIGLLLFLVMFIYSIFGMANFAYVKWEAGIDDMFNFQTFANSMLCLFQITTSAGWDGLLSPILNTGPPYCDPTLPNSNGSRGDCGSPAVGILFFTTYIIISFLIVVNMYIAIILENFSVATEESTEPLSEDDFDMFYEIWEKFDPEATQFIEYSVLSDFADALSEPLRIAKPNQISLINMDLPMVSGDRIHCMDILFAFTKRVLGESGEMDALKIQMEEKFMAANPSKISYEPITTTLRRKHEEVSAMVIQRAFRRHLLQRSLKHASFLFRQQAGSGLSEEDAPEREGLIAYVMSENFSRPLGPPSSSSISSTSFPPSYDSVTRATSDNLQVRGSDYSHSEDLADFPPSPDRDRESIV
Sequence of Prostaglandin G/H synthase 1 (P23219 whole entry): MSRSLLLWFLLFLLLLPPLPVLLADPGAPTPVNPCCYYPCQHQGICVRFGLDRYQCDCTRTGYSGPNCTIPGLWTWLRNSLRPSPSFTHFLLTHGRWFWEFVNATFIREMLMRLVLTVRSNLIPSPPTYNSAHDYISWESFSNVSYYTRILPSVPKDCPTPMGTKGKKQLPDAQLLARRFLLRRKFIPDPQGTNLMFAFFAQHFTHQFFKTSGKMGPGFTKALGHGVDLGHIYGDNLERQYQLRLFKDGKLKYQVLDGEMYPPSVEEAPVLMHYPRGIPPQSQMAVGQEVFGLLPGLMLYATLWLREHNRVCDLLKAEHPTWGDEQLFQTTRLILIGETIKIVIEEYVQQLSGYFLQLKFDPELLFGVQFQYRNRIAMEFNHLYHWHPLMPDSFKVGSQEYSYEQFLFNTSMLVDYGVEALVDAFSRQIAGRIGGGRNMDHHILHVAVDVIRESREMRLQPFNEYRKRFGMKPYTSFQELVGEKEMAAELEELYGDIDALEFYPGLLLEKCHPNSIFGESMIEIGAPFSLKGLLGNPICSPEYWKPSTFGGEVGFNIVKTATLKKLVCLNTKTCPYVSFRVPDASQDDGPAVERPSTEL
Sequence of Vasopressin V2 receptor (P30518 whole entry): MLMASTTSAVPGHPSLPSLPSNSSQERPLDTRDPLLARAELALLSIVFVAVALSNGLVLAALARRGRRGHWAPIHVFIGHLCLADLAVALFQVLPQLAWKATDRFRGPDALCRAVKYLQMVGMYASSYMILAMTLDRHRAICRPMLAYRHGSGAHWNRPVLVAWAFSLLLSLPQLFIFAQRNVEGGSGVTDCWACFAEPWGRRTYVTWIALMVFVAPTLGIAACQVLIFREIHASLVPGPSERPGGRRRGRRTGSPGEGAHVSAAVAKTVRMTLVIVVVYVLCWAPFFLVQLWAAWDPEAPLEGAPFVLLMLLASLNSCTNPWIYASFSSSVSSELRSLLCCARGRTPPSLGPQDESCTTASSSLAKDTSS
Sequence of Mu-type opioid receptor (P35372 whole entry): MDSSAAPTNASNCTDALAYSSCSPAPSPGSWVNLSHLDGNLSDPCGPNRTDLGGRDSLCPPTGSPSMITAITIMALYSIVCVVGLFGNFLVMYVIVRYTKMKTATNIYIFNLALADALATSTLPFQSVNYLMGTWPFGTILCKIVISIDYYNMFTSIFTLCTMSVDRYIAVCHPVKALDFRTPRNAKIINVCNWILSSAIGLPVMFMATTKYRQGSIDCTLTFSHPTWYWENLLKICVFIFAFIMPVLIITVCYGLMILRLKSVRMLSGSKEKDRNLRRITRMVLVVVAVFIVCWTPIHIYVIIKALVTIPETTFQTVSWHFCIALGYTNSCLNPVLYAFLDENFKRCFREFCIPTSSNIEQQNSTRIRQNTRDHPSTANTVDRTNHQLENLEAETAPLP
Sequence of Histamine H3 receptor (Q9Y5N1 whole entry): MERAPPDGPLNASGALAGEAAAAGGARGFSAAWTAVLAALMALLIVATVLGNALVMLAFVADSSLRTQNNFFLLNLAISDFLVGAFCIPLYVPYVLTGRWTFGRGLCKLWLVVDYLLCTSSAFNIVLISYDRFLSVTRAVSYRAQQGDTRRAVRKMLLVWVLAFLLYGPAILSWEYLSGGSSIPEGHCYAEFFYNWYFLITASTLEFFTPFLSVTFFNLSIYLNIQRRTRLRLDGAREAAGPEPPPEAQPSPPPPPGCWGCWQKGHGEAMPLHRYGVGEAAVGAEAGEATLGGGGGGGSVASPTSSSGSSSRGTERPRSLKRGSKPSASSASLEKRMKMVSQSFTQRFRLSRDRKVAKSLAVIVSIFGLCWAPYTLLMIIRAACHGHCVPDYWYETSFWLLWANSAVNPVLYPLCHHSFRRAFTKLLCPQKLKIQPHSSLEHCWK
Sequence of Sodium-dependent noradrenaline transporter (P23975 whole entry): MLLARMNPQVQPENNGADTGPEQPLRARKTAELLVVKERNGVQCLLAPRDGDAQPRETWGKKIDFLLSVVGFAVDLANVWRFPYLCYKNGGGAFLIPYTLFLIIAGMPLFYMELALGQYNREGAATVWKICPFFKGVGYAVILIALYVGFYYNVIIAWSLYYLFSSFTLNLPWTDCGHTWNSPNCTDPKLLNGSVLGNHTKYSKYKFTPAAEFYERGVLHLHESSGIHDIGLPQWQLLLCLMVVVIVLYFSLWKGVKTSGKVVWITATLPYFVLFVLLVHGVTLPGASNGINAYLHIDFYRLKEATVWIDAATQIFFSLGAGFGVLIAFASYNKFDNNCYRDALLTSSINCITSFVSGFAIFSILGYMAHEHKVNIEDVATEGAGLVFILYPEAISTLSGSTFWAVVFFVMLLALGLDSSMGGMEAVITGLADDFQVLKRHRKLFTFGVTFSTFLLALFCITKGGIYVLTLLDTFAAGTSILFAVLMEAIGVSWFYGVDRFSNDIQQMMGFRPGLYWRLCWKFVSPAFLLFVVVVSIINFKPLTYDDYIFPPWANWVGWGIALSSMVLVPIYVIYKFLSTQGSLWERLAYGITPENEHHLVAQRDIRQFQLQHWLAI

SMILES | AC50 [1] [µM] | AC50 [2] [µM] | AC50 [3] [µM] | AC50 (Mu-type opioid receptor) [µM] | AC50 (Vasopressin V2 receptor) [µM] | AC50 (B1 bradykinin receptor) [µM] | AC50 [4] [µM] | AC50 (Histamine H3 receptor) [µM] | AC50 [5] [µM] | AC50 (Progesterone receptor) [µM] | AC50 [6] [µM]
CCOC(=O)[C@H](CCc1ccccc1)N[C@@H](C)C(=O)N1CCC[C@H]1C(=O)O | > 10 | > 30 | > 10 | > 10 | > 30 | > 30 | > 30 | – | – | – | –
C#C[C@]1(O)CC[C@H]2[C@@H]3CCc4cc(O)ccc4[C@H]3CC[C@@]21C [ETHINYL ESTRADIOL] | > 10 | > 30 | > 10 | > 30 | > 30 | > 30 | > 30 | > 30 | > 30 | – | –
O=C(NC[C@H]1CN(c2ccc(N3CCOCC3=O)cc2)C(=O)O1)c1ccc(Cl)s1 [RIVAROXABAN] | – | – | – | > 30 | – | – | > 50 | > 30 | > 30 | > 30 | > 30
CS(=O)(=O)c1ccc([C@@H](O)[C@@H](CO)NC(=O)C(Cl)Cl)cc1 [THIAMPHENICOL] | – | – | – | – | > 30 | – | > 50 | > 30 | > 30 | > 30 | > 30

Continued, in another order:

AC50 [1] [µM] | AC50 [2] [µM] | AC50 [3] [µM] | AC50 (Mu-type opioid receptor) [µM] | AC50 (Vasopressin V2 receptor) [µM] | AC50 (B1 bradykinin receptor) [µM] | SMILES | AC50 [4] [µM] | AC50 (Histamine H3 receptor) [µM] | AC50 [5] [µM] | AC50 (Progesterone receptor) [µM] | AC50 [6] [µM]
> 10 | > 30 | > 10 | > 10 | > 30 | > 30 | CC(C)NCC(O)COc1ccc(COCCOC(C)C)cc1 (configuration not stated) [BISOPROLOL] | > 30 | – | – | – | –
– | – | – | 9.4 | > 10 | – | COC(=O)C1=C(C)NC(C)=C(C(=O)OCC(C)C)C1c1ccccc1[N+](=O)[O-] (configuration not stated) [NISOLDIPINE] | 8.6 | – | – | > 30 | –
– | – | – | > 30 | – | – | OCc1cc([C@@H](O)CNCCCCCCOCCOCc2c(Cl)cccc2Cl)ccc1O [VILANTEROL] | 5 | – | – | > 30 | –
